According to US8481738B2, “Gonadotropin-releasing hormone receptor antagonists and methods relating thereto” (Neurocrine Biosciences, Inc., priority 2007, dated 2013):

target: T1, human GnRH receptor (Homo sapiens, UniProt P30968); assay: Peptide competition radioligand binding displacement assay, human GnRH receptor membranes; conditions: one or more of the peptide competition human receptor binding assays
T1 construct: expressed in transfected cells; host or cells: RBL cells, stably transfected (in general)
T1 sequence (P30968 1-328): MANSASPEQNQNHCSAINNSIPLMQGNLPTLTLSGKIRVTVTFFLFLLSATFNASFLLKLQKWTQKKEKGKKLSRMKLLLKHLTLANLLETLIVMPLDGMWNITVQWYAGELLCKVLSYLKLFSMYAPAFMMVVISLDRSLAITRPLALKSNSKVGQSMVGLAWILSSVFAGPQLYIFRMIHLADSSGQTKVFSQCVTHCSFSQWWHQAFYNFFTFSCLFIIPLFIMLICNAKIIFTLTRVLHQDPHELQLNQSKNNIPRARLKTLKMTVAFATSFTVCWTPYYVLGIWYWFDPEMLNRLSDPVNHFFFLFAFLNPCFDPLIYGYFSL
In short: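 Membranes for radioligand binding were prepared from RBL cells stably expressing human GnRH receptor, which were lysed by nitrogen cavitation at 900 psi, 4° C. Membranes from HEK293 cells stably transfected with human receptor were held in 10 mM HEPES pH 7.5, 150 mM NaCl, 0.1% BSA. Transiently transfected COS-7 cells were used for other species.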

Ki, ≤ 100 nM:
COc1cc(Cl)c(-c2cnc(C(F)(F)F)cc2C#N)cc1C(=O)N(C)c1ccccn1 [39-14]
Cc1cc(Cl)ncc1-c1cc(C(=O)N(C)c2cccc(F)c2OCCCC(=O)O)ccc1Cl [4-4]
COc1ccccc1N(C)C(=O)c1cc(-c2cnc(C(F)(F)F)cc2C#N)c(Cl)cc1OCCOc1ccccn1 [42-8]
Cc1cc(C(F)(F)F)nc(=O)n1-c1cc(C(=O)N(C)c2cc(F)ccc2Cl)ccc1Cl [30-9]
COC(=O)COc1ccccc1N(C)C(=O)c1ccc(Cl)c(-c2cnc(C#N)cc2C)c1 [3-3]
COc1cc(Cl)c(-c2cnc(C(F)(F)F)cc2C#N)cc1C(=O)N(C)c1c(C)cccc1C [39-1, 4-Chloro-5-(4-cyano-6-trifluoromethyl-pyridin-3-yl)-N-(2,6-dimethyl-phenyl)-2-methoxy-N-methyl-benzamide]
COc1cccc(C)c1N(C)C(=O)c1ccc(Cl)c(-c2cnc(Cl)cc2C)c1 [2-31, 4-chloro-3-(6-chloro-4-methyl-pyridin-3-yl)-N-(2-methoxy-6-methyl-phenyl)-N-methyl-benzamide]
COc1ccccc1N(C)C(=O)c1cc(-c2cnc(C(F)(F)F)cc2C#N)c(Cl)cc1OCCCc1cn[nH]c1 [42-7]
CN(C(=O)c1ccc(Cl)c(-c2cnc(C(F)(F)F)cc2C#N)c1)c1ccccc1OCCc1n[nH]c(=O)[nH]1 [40-1, 4-Chloro-3-(4-cyano-6-trifluoromethyl-pyridin-3-yl)-N-methyl-N-{2-[2-(5-oxo-4,5-dihydro-1H-[1,2,4]triazol-3-yl)-ethoxy]-phenyl}-benzamide]
COc1ccccc1N(C)C(=O)c1ccc(Cl)c(-c2ncc(Cl)cc2C)c1 [2-57]
CN(C(=O)c1ccc(Cl)c(-c2nc3c(F)cccc3cc2C#N)c1)c1ccccc1OCCCC(=O)O [33-2]
Cc1cc(Cl)c(-c2cc(C(=O)N(C)c3cccc(C)c3C)ccc2Cl)cn1 [2-22]
Cc1cc(Cl)ncc1-c1cc(C(=O)N(C)c2ccccc2OCCCCC(=O)O)ccc1Cl [4-5]
COc1cc(Cl)c(-c2cnc(C(F)(F)F)cc2C#N)cc1C(=O)N(C)c1c(F)cccc1F [39-6]
Cc1cc(Cl)ncc1-c1cc(C(=O)N(C)c2c(C)cccc2OCCCC(=O)O)ccc1Cl [4-3]
CN(C(=O)c1ccc(Cl)c(-c2cnc(C(F)(F)F)cc2C#N)c1)c1ccccc1OCCOc1ccccn1 [51-1, 4-Chloro-3-(4-cyano-6-trifluoromethyl-pyridin-3-yl)-N-methyl-N-{2-[2-(pyridin-2-yloxy)-ethoxy]-phenyl}-benzamide]
Cc1cccc(C)c1N(C)C(=O)c1ccc(Cl)c(-c2ncc(Cl)cc2Cl)c1 [19-8]
Cc1cc(Cl)ncc1-c1cc(C(=O)N(C)c2ccccc2CCCC(=O)O)ccc1Cl [14-1, 4-(2-{[4-Chloro-3-(6-chloro-4-methyl-pyridin-3-yl)-benzoyl]-methyl-amino}-phenyl)-butyric acid]
COc1ccccc1N(C)C(=O)c1cc(-c2cnc(C(F)(F)F)cc2C#N)c(Cl)cc1OCCCn1cncn1 [42-13]
Cc1cc(C#N)ncc1-c1cc(C(=O)N(C)c2ccccc2OCCCC(=O)O)ccc1Cl [5-1, 4-(2-{[4-Chloro-3-(6-cyano-4-methyl-pyridin-3-yl)-benzoyl]-methyl-amino}-phenoxy)-butyric acid]
COc1c(Cl)cccc1N(C)C(=O)c1ccc(Cl)c(-c2cnc(Cl)cc2C)c1 [2-42]
COc1cccc(C)c1N(C)C(=O)c1ccc(Cl)c(-c2cnc(Cl)cc2Cl)c1 [2-29]
COC(=O)CCCOc1ccccc1N(C)C(=O)c1ccc(Cl)c(-c2cnc(C(F)(F)F)cc2C#N)c1 [3-10]
CN(C(=O)c1ccc(Cl)c(-c2cnc(C(F)(F)F)cc2C#N)c1)c1ccccc1OCCCN1CCC[C@H]1C(=O)O [50-1, (S)-1-[3-(2-{[4-Chloro-3-(4-cyano-6-trifluoromethyl-pyridin-3-yl)-benzoyl]-methyl-amino}-phenoxy)-propyl]-pyrrolidine-2-carboxylic acid]
Cc1cc(C#N)ncc1-c1cc(C(=O)N(C)c2cccc(F)c2OCCCC(=O)O)ccc1Cl [4-9]
COc1ccccc1N(C)C(=O)c1ccc(Cl)c(-c2ncc(F)cc2F)c1 [2-59]
COc1cccc(C)c1N(C)C(=O)c1cc(-c2cnc(C#N)cc2C)c(Cl)cc1OCCCCO [21-2]
COc1cc(Cl)c(-c2cnc(C(F)(F)F)cc2C#N)cc1C(=O)N(C)Cc1ccccc1F [39-16]
COc1cc(C)c(-c2cc(C(=O)N(C)c3c(C)cccc3OC)ccc2Cl)cn1 [2-26]
Cc1cc(Cl)c(-c2cc(C(=O)N(C)c3cccc(C(F)(F)F)c3C)ccc2Cl)cn1 [2-24]
COc1ccccc1N(C)C(=O)c1cc(-c2cnc(C(F)(F)F)cc2C#N)c(Cl)cc1OCCN1CCC[C@@H]1C(=O)O [49-2]
COc1cc(Cl)c(-c2cnc(C(F)(F)F)cc2C#N)cc1C(=O)N(C)c1c(OC)cccc1OC [39-3]
COC(=O)CCCc1ccccc1N(C)C(=O)c1ccc(Cl)c(-c2cnc(C(F)(F)F)cc2C#N)c1 [13-3]
COc1ccccc1N(C)C(=O)c1cc(-c2cnc(C(F)(F)F)cc2C#N)c(Cl)cc1OCCCOc1ccccn1 [42-15]
Cc1cc(Cl)ncc1-c1cc(C(=O)N(C)c2ccccc2OCC(N)=O)ccc1Cl [6-1, N-(2-Carbamoylmethoxy-phenyl)-4-chloro-3-(6-chloro-4-methyl-pyridin-3-yl)-N-methyl-benzamide]
COc1ccccc1N(C)C(=O)c1cc(-c2cnc(C(F)(F)F)cc2C#N)c(Cl)cc1OCCN(C)C(=O)C(F)(F)F [47-5]
Cc1cc(C(F)(F)F)ncc1-c1cc(C(=O)N(C)c2cccc(F)c2OCCCC(=O)O)ccc1Cl [4-7]
COc1ccccc1N(C)C(=O)c1cc(-c2cnc(C(F)(F)F)cc2C#N)c(Cl)cc1OCCN1CCC[C@H]1C(=O)O [49-3]
COc1cccc(C)c1N(C)C(=O)c1ccc(Cl)c(-c2cnc(SC)cc2C)c1 [26-1, 4-Chloro-N-(2-methoxy-6-methyl-phenyl)-N-methyl-3-(4-methyl-6-methyl-sulfanylpyridin-3-yl)-benzamide]
COc1ccccc1N(C)C(=O)c1cc(-c2cnc(C(F)(F)F)cc2C#N)c(Cl)cc1OCCCn1cccn1 [42-12]
Cc1cccc(C)c1N(C)C(=O)c1cc(-c2nc3ccccc3cc2C#N)c(Cl)cc1OCCCCO [21-6]
COC(=O)CCCOc1ccccc1N(C)C(=O)c1ccc(Cl)c(-c2cnc(C#N)cc2C)c1 [3-8]
COc1ccccc1N(C)C(=O)c1cc(-c2cnc(C(F)(F)F)cc2C#N)c(Cl)cc1OCCN1CCOCC1 [42-2]
COc1ccccc1N(C)C(=O)c1cc(-c2cnc(C(F)(F)F)cc2C#N)c(Cl)cc1OCCn1ccnc1 [42-3]
COc1cccc(C)c1N(C)C(=O)c1cc(-c2cnc(C(F)(F)F)cc2C#N)c(Cl)cc1OCCCCO [21-1, 4-Chloro-5-(4-cyano-6-trifluoromethyl-pyridin-3-yl)-2-(4-hydroxy-butoxy)-N-(2-methoxy-6-methyl-phenyl)-N-methyl-benzamide]
